Data from PMC10525927, “First Generation of Antioxidant Precursors for Bioisosteric Se-NSAIDs: Design, Synthesis, and In Vitro and In Vivo Anticancer Evaluation” (Antioxidants, 2023).

Assays:
[1] = tested on: T-47D breast cancer cells; parameters: method as in PMID 26750401, PMID 32987314, PMID 33799070, PMID 36257283; details: MTT; parent NSAIDs for reference, some values obtained from the literature; cited from earlier work
A549 lung cancer cells = tested on: A549 lung cancer cells; parameters: method as in PMID 26750401, PMID 32987314, PMID 33799070, PMID 36257283; details: MTT; parent NSAIDs for reference, some values obtained from the literature; cited from earlier work
[2] = tested on: HCT-116 colon cancer cells; parameters: method as in PMID 26750401, PMID 32987314, PMID 33799070, PMID 36257283; details: MTT; parent NSAIDs for reference, some values obtained from the literature; cited from earlier work
[3] = tested on: MDA-MB-231 breast cancer cells; parameters: method as in PMID 26750401, PMID 32987314, PMID 33799070, PMID 36257283; details: MTT; parent NSAIDs for reference, some values obtained from the literature; cited from earlier work
H1299 lung cancer cells = tested on: H1299 lung cancer cells; parameters: method as in PMID 26750401, PMID 32987314, PMID 33799070, PMID 36257283; details: MTT; parent NSAIDs for reference, some values obtained from the literature; cited from earlier work
HT-29 colon cancer cells = tested on: HT-29 colon cancer cells; parameters: method as in PMID 26750401, PMID 32987314, PMID 33799070, PMID 36257283; details: MTT; parent NSAIDs for reference, some values obtained from the literature; cited from earlier work
[4] = tested on: PC-3 prostate cancer cells; parameters: method as in PMID 26750401, PMID 32987314, PMID 33799070, PMID 36257283; details: MTT; parent NSAIDs for reference, some values obtained from the literature; cited from earlier work
[5] = tested on: DU-145 prostate cancer cells; parameters: method as in PMID 26750401, PMID 32987314, PMID 33799070, PMID 36257283; details: MTT; parent NSAIDs for reference, some values obtained from the literature; cited from earlier work
[6] = DPPH radical scavenging assay; details: positive controls, each time point and concentration (0.03 and 0.06 mg/mL)
Experimental: Briefly, the compounds were dissolved at a concentration of 1 mg/mL in absolute methanol, and a dilution was prepared. […] Then, 100 µL of the DPPH solution was added to 100 µL of the compounds’ solution to a final concentration of 0.03 mg/mL or 0.06 mg/mL, and the decolorization of the purple radical to the yellowish reduced form was followed by recording the absorbance at 517 nm. Ascorbic acid (Asc) and Trolox were used as positive controls. Both of them, Asc and Trolox, were purchased from Sigma-Aldrich. Determinations were recorded at eight different time intervals from 0 to 120 min on a BioTeck PowerWave XS spectrophotometer, and the data were collected using KCJunior version 1.41. software. All the measurements were carried out in triplicate. Results are expressed as the percentage of the radical scavenged, calculated using the following formula: % DPPH radical scavenging = [(Acontrol − Asample)/Acontrol] × 100, wherein Acontrol refers to the absorbance of the negative control and Asample refers to the absorbance of the tested compounds.

Row | SMILES | IC50 [1] [µM] | IC50 (A549 lung cancer cells) [µM] | IC50 [2] [µM] | IC50 [3] [µM] | IC50 (H1299 lung cancer cells) [µM] | IC50 (HT-29 colon cancer cells) [µM] | IC50 [4] [µM] | IC50 [5] [µM] | DPPH radical scavenging activity [6]
1 | COc1ccc2c(c1)c(CC(=O)O)c(C)n2C(=O)c1ccc(Cl)cc1 [Ind, indomethacin] | > 50 | > 50 | > 50 | > 50 | > 50 | > 50 | > 50 | > 50 | –
2 | CC(C)Cc1ccc(C(C)C(=O)O)cc1 (stereo not shown) [Ibup, ibuprofen] | > 50 | > 50 | > 50 | > 50 | > 50 | > 50 | > 50 | > 50 | –
3 | Cc1c(C)c2c(c(C)c1O)CCC(C)(C(=O)O)O2 (stereo not shown) [Trolox, reference compound] | – | – | – | – | – | – | – | – | maximal scavenging activity
4 | CC(=O)Oc1ccccc1C(=O)O [ASA, aspirin] | > 50 | > 50 | > 50 | > 50 | > 50 | > 50 | > 50 | > 50 | –
5 | O=C1O[C@H]([C@@H](O)CO)C(O)=C1O [Asc, Ascorbic acid, reference compound] | – | – | – | – | – | – | – | – | maximal scavenging activity
6 | CC(C(=O)O)c1cccc(C(=O)c2ccccc2)c1 (stereo not shown) [Ket, ketoprofen] | > 50 | > 50 | > 50 | > 50 | > 50 | > 50 | > 50 | > 50 | –
